Assay results published in US10947188B2, “Small molecule ferroptosis inducers” (THE TRUSTEES OF COLUMBIA UNIVERSITY IN THE CITY OF NEW YORK, priority 2016, dated 2021).

Tested on: BJeLR
Experiment: Modulatory profiling: Alamar Blue viability, lethal compound cotreated with death modulator (EC50, AUC)
Assay type: cell-based, human
Set-up: AUC, modulator BJ.Gd3+ / AUC, modulator BJ.LNAME / AUC, modulator BJ.Lmin / AUC, modulator BJ.3MA / AUC, modulator BJ.ALLN / AUC, modulator BJ.Boc D / AUC, modulator BJ.CHX / AUC, modulator BJ.Co2+ / AUC, modulator BJ.Nec-1 / AUC, modulator BJ.Pepstatin / AUC, modulator BJ.TLCK / AUC, modulator BJ.atoc / AUC, modulator BJ.trolox / AUC, modulator BJ.zVAD: unit not given beside the values
Conditions: for AUC, modulator BJ.3MA / AUC, modulator BJ.ALLN / AUC, modulator BJ.Boc D / AUC, modulator BJ.CHX / AUC, modulator BJ.Co2+ / AUC, modulator BJ.DPQ / AUC, modulator BJ.Gd3+ / AUC, modulator BJ.LNAME / AUC, modulator BJ.Lmin/NAD+ / AUC, modulator BJ.Lmin / AUC, modulator BJ.NAD+ / AUC, modulator BJ.NMMA / AUC, modulator BJ.Nec-1 / AUC, modulator BJ.Pepstatin / AUC, modulator BJ.TLCK / AUC, modulator BJ.atoc / AUC, modulator BJ.trolox / AUC, modulator BJ.zVAD: BJeLR cells, modulatory profile value (AUC); for AUC, modulator BJ.3MA: lethal compound cotreated with modulator 3MA; for AUC, modulator BJ.ALLN: lethal compound cotreated with modulator ALLN; for AUC, modulator BJ.Boc D: lethal compound cotreated with modulator Boc D; for AUC, modulator BJ.CHX: lethal compound cotreated with modulator CHX; for AUC, modulator BJ.Co2+: lethal compound cotreated with modulator Co2+; for AUC, modulator BJ.DPQ: lethal compound cotreated with modulator DPQ; for AUC, modulator BJ.Gd3+: lethal compound cotreated with modulator Gd3+; for AUC, modulator BJ.LNAME: lethal compound cotreated with modulator LNAME; for AUC, modulator BJ.Lmin/NAD+: lethal compound cotreated with modulator Lmin/NAD+; for AUC, modulator BJ.Lmin: lethal compound cotreated with modulator Lmin; for AUC, modulator BJ.NAD+: lethal compound cotreated with modulator NAD+; for AUC, modulator BJ.NMMA: lethal compound cotreated with modulator NMMA; for AUC, modulator BJ.Nec-1: lethal compound cotreated with modulator Nec-1; for AUC, modulator BJ.Pepstatin: lethal compound cotreated with modulator Pepstatin; for AUC, modulator BJ.TLCK: lethal compound cotreated with modulator TLCK; for EC50: Homo sapiens, BJeLR, 48 h; for AUC, modulator BJ.atoc: lethal compound cotreated with modulator atoc; for AUC, modulator BJ.trolox: lethal compound cotreated with modulator trolox; for AUC, modulator BJ.zVAD: lethal compound cotreated with modulator zVAD
[1] = cotreated with antioxidant Trolox
[2] = cotreated with antioxidant atoc
[3] = cotreated with iron-chelator Lmim

Structure (SMILES) | AUC, modulator BJ.3MA | AUC, modulator BJ.ALLN | AUC, modulator BJ.Boc D | AUC, modulator BJ.CHX | AUC, modulator BJ.Co2+ | AUC, modulator BJ.DPQ | AUC, modulator BJ.Gd3+ | AUC, modulator BJ.LNAME | AUC, modulator BJ.Lmin/NAD+ | AUC, modulator BJ.Lmin | AUC, modulator BJ.NAD+ | AUC, modulator BJ.NMMA | AUC, modulator BJ.Nec-1 | AUC, modulator BJ.Pepstatin | AUC, modulator BJ.TLCK | EC50 (DMSO) | EC50 (cotreated with Lmim_NAD) | AUC, modulator BJ.atoc | AUC, modulator BJ.trolox | AUC, modulator BJ.zVAD | other results
O=C(CCl)N(c1ccccc1)c1c[nH]c2ccccc12 [CIL69] | 0.07713 | −0.0005222 | −0.003228 | −0.03495 | 0.1724 | 0.02521 | 0.02983 | 0.005201 | 0.1449 | 0.1799 | 0.02203 | −0.02133 | 0.1721 | 0.0531 | 0.1963 | 193 nM | 889 nM | – | – | – | EC50 [1]: 2050 nM; EC50 [2]: 1780 nM; EC50 [3]: 976 nM
COC(=O)[C@@H]1Cc2c([nH]c3ccccc23)C(C)(C)N1C(=O)CCl [CIL79] | 0.0798 | 0.02717 | 0.02938 | −0.04651 | 0.1763 | 0.003967 | 0.00956 | 0.01544 | 0.2136 | 0.2049 | −0.00637 | −0.008594 | 0.2258 | 0.04063 | 0.1984 | 157 nM | 566 nM | – | – | – | EC50 [1]: 8320 nM; EC50 [2]: 7930 nM; EC50 [3]: 667 nM
CC[C@@]1(O)C(=O)OCc2c1cc1n(c2=O)Cc2cc3ccccc3nc2-1 [Camptothecin] | −0.02027 | 0.03368 | 0.07983 | 0.1233 | 0.02899 | −0.01119 | −0.007898 | 0.003206 | 0.1164 | 0.02947 | 0.112 | −0.006852 | 0.02477 | 0.01408 | 0.02306 | – | – | 0.01158 | 0.04874 | 0.08241 | –
COc1ccc(N(C(=O)CCl)C(C(=O)NCCc2ccccc2)c2cccs2)cc1 (stereo not shown) [DPI4] | 0.0813 | −0.07596 | −0.0206 | −0.04482 | 0.116 | 0.02148 | 0.06864 | 0.00317 | 0.1443 | 0.1443 | 0.03153 | 0.004961 | 0.1295 | 0.03966 | 0.1612 | – | – | 0.2611 | 0.2547 | −0.02179 | –
COc1cccc2c1C(=O)c1c(O)c3c(c(O)c1C2=O)C[C@@](O)(C(C)=O)C[C@@H]3O[C@H]1C[C@H](N)[C@H](O)[C@H](C)O1 [Daunorubicin] | 0.03793 | 0.02846 | 0.03322 | 0.1497 | 0.2122 | −0.03527 | −0.005247 | 0.005526 | 0.1434 | 0.05475 | 0.1226 | −0.01867 | −0.02055 | 0.02539 | 0.02856 | – | – | 0.004145 | −0.02026 | 0.05594 | –
